The values below come from publication PMC3260273, “Allosteric Antagonism of Insect Odorant Receptor Ion Channels” (PLoS ONE, 2012).

One test concerns the target T1, HsOrco (Harpegnathos saltator, UniProt E2BJ30).
T1 construct: gene Orco
T1 sequence (E2BJ30 1-479): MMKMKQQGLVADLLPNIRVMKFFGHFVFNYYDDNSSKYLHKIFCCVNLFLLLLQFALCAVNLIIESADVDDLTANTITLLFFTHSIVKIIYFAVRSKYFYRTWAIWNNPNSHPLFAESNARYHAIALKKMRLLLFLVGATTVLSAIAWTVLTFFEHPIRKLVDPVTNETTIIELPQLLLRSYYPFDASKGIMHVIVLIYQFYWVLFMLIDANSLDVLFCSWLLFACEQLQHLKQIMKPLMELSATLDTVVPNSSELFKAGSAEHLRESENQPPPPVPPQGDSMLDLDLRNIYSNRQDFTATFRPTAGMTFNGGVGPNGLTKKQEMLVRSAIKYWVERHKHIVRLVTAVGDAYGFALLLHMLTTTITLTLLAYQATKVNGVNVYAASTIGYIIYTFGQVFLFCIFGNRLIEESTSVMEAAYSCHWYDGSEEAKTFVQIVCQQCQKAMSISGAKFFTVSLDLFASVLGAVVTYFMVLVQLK
As to the kind of experiment: whole-cell patch clamp, HEK cells, […] antagonist against […] VUAA1. The format is cell-based. For orientation: Patch clamp records ionic current or voltage across a cell membrane.

In test [1] the target is T2, AgOrco (Anopheles gambiae, UniProt Q7QCC7).
T2 construct: gene Orco
T2 sequence (Q7QCC7 1-478): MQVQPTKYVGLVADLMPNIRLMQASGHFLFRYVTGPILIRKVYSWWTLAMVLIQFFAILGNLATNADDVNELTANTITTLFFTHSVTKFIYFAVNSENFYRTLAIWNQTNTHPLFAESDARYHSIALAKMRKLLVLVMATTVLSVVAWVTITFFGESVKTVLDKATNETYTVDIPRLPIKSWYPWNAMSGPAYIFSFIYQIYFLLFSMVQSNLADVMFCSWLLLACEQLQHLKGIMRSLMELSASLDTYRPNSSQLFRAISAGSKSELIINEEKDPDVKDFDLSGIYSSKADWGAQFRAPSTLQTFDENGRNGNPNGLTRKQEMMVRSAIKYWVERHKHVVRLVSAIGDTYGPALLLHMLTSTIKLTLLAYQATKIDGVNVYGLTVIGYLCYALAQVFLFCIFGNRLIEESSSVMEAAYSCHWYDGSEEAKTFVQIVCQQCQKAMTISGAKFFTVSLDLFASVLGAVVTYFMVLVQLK
As to the kind of experiment: calcium mobilization in AgOrco-only HEK cells against VUAA1; whole-cell patch clamp. Format: cell-based.

Test [2] has as its target T2, AgOrco. The experiment in a line: calcium mobilization in AgOrco-only HEK cells against VUAA1. The format is cell-based.
A further test has as its target TRPV1 (Rattus norvegicus, UniProt O35433). The experiment in a line: whole-cell patch clamp in HEK cells, […] capsaicin. Format: cell-based.
A further test has as its system T3, AgOr65.
T3 construct: gene Or65; with AgOrco
The experiment in a line: calcium mobilization concentration response in AgOrco+AgOr65 HEK cells; patch clamp. The format is cell-based, Anopheles gambiae. A general note: Calcium assays in cells follow changes in intracellular calcium, usually with a dye or a luminescent sensor.

TRPV1, sequence (O35433 whole entry): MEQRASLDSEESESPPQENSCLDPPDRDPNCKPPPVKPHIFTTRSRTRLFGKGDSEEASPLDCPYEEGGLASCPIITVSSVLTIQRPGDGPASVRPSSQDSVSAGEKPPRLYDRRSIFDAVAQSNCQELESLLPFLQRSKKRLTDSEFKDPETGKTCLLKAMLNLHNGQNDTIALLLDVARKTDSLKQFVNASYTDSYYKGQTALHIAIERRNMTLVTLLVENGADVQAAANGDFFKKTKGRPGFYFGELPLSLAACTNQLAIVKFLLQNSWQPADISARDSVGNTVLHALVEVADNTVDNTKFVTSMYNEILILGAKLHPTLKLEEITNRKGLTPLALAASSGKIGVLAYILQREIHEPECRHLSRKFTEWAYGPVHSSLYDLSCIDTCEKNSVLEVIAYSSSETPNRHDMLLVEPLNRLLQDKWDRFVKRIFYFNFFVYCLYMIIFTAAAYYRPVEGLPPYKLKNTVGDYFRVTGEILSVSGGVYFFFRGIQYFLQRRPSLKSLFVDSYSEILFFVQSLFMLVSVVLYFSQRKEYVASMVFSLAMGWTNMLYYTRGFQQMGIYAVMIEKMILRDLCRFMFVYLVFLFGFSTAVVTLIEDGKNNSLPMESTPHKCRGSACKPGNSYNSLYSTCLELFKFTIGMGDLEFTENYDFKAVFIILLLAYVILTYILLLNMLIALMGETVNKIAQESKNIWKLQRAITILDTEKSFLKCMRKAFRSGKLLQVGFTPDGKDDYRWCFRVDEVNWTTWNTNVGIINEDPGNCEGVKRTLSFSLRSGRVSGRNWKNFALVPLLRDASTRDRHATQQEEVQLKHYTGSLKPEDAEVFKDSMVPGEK

Consider `CCn1c(SCC(=O)N2c3ccccc3Sc3ccccc32)nnc1-c1ccco1` [VU0183254, 10-({[4-ethyl-5-(2-furyl)-4H-1,2,4-triazol-3-yl]thio}acetyl)-10H-phenothiazine], for which the “%” value on HsOrco came to 63.9±2.2%. The IC50 (in general, the concentration that gives 50% inhibition) on AgOrco [1] was 12.6 µM. Regarding `CCn1c(SCC(=O)Nc2ccc(Br)cc2C)nnc1-c1cccnc1` [VU0450667, N-(4-bromo-2-methylphenyl)-2-((4-ethyl-5-(pyridin-3-yl)-4H-1,2,4-triazol-3-yl)thio)acetamide], the IC50 on AgOrco [2] is 1580 µM. With `COc1cc(CNC(=O)CCCC/C=C/C(C)C)ccc1O` [capsaicin], the “whole-cell patch clamp in HEK cells, 10 μM capsaicin” value at TRPV1 was “VU0183254 did not affect the macroscopic currents induced by the natural TRPV1 ligand capsaicin”.

On to `C=CCc1ccc(O)c(OC)c1` [eugenol], for which the EC50 in the test on AgOr65 is −6.69+/−.03 log M.
